According to patent US6342503B1, “1N-alkyl-n-arylpyrimidinamines and derivatives thereof” (DuPont Pharmaceuticals Company, priority 1993, dated 2002):
Where a name gives a salt, the structure may show the parent alone.

What was measured:
[1] = molecular target: T1, CRF receptor (Rattus norvegicus, UniProt P35353); experiment: In vitro CRF receptor binding assay (competition with [125I] ovine CRF, rat cortex membranes); settings: read-out: Inhibition Ki
T1 construct: 100 μl of membrane suspension as prepared above to give a total reaction volume of 300 μl; from tissue; host or cells: rat cerebral cortex membrane homogenate
T1 sequence (P35353 24-415): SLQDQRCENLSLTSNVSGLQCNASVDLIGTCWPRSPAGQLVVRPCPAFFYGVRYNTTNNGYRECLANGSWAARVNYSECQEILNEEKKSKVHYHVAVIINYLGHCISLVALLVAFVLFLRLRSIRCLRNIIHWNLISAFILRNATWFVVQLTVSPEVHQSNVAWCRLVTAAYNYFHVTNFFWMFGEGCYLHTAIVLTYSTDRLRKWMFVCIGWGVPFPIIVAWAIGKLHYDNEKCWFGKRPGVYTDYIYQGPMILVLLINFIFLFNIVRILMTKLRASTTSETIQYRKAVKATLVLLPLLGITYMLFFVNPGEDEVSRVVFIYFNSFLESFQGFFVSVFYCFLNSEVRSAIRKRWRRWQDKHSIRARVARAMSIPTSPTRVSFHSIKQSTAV

Compound | melting point | Ki [1]
CCc1cc(N2CCCCC2)nc(N(C)c2ccc(C(C)C)cc2Br)n1 [compound 194] | 211 to 212 °C | < 500 nM
COc1cc(Br)c(Nc2nc(C)cc(C)n2)c(Br)c1 [compound 223] | 175 to 177 °C | 501 to 2000 nM
CCN(c1nc(C)cc(C(=O)c2cc[nH]n2)n1)c1ccc(C(C)C)cc1Br [compound 286] | 171 to 173 °C | < 500 nM
CCN(c1nc(C)cc(C)n1)c1ccc(C(C)C)cc1S(C)(=O)=O [compound 174, N-(2-methylsulfonyl-4-(1-methylethyl)phenyl)-N-ethyl-4,6-dimethyl-2-pyrimidinamine] | 174 to 176 °C | < 500 nM
CCN(c1nc(C)nc(Oc2ccccc2)n1)c1ccc(C(C)C)cc1Br [compound 243] | 140 to 142 °C | 2000 to 10000 nM
CCN(c1nc(C)cc(C(=O)c2ccco2)n1)c1ccc(C(C)C)cc1Br [compound 288] | 136 to 138 °C | < 500 nM
Cc1ccc(N(C)c2nc(C)cc(N3CCOCC3)n2)c(Br)c1 [compound 6] | 40 to 42 °C | 501 to 2000 nM
CCN(c1nc(C)cc(C(=O)N(C)C)n1)c1ccc(C(C)C)cc1Br [compound 282] | 80 to 82 °C | < 500 nM
CCN(c1nc(C)cc(C(=O)N2CCN(c3ncccn3)CC2)n1)c1ccc(C(C)C)cc1Br [compound 273] | 114 to 116 °C | 501 to 2000 nM
COc1cc(OC)c(N(C)c2nc(C)cc(C)n2)c(OC)c1 [compound 14] | 145 to 146 °C | 501 to 2000 nM
CCN(c1nc(C)cc(N2CCOCC2)n1)c1ccc(C(C)C)cc1I [compound 30, N-Ethyl-N-(2-iodo4-(1-methylethyl)phenyl)4-morpholinyl-6-methyl-2-pyrimidinamine] | 96 to 98 °C | < 500 nM
CCN(c1nc(C)cc(C)n1)c1c(OC)cc(OC)c(Br)c1Br [compound 251, N-(2,3-Dibromo-4,6-dimethoxyphenyl)-N-ethyl-4,6-dimethyl-2-pyrimidinamine] | 133 to 138 °C | 501 to 2000 nM
CCN(c1nc(C)cc(C)n1)c1ccc(N(C)C)cc1SC [compound 191, N-(4-(N,N-dimethylamino)-2-methylthiophenyl)-N-ethyl-4,6-dimethyl-2-pyrimidinamine] | 119 to 120 °C | < 500 nM
CCN(c1nc(C)nc(N(C)C)n1)c1ccc(C(C)C)cc1Br [compound 240] | 72 to 75 °C | < 500 nM
CCN(c1nc(C)nc(N2CCSC2)n1)c1ccc(C(C)C)cc1Br [compound 241] | 70 to 72 °C | < 500 nM
CCCCN(c1nc(C)cc(C)n1)c1ccc(C(C)C)cc1Br [compound 197] | 159 to 160 °C | 501 to 2000 nM
CCN(c1nc(C)cc(C)n1)c1c(O)cc(OC)cc1Br [compound 230, N-(2-Bromo-6-hydroxy-4-methoxyphenyl)-N-ethyl-4,6-dimethyl-2-pyrimidinamine] | 157 to 160 °C | < 500 nM
CCOC(=O)c1ccc(N(CC)c2nc(C)cc(C)n2)c(SC)c1 [compound 184, N-(4-carboethoxy-2-methylthiophenyl)-N-ethyl-4,6-dimethyl-2-pyrimidinamine] | 99 to 100 °C | 501 to 2000 nM
CCCN(c1nc(C)cc(C)n1)c1ccc(C(C)C)cc1Br [compound 196] | 150 to 151 °C | < 500 nM
CCN(c1nc(C)cc(C)n1)c1c(Cl)cc(OC)cc1OC [compound 141] | 99 to 102 °C | < 500 nM
CCN(c1nc(C)cc(C)n1)c1c(Br)cc(OC)cc1Br [compound 226] | 101 to 103 °C | < 500 nM
CCN(c1nc(C)cc(C)n1)c1cc(Br)c(OC)cc1OC [compound 253, N-(3-Bromo-4,6-dimethoxyphenyl)-N-ethyl-4,6-dimethyl-2-pyrimidinamine] | 143 to 145 °C | 501 to 2000 nM
Cc1cc(Cl)nc2c1c(C#N)cn2-c1ccc(C(C)C)cc1Br [Example 262] | 123.8 °C | < 500 nM
CCN(c1nc(C)cc(C)n1)c1c(OC)cc(OC)cc1OC [compound 15] | 115 to 116 °C | < 500 nM
CCN(c1nc(C)cc(N2CC[S+]([O-])CC2)n1)c1ccc(C(C)C)cc1I [compound 56, N-ethyl-N-(2-iodo4-(1-methylethyl)phenyl)4-thiomorpholino-6-methyl-2-pyrimidinamine, S-oxide] | 52 to 55 °C | < 500 nM
CCOC(=O)N1CCN(c2nc(C)nc(N(CC)c3c(Br)cc(OC)cc3OC)n2)CC1 [compound 244] | 65 to 70 °C | 2000 to 10000 nM

Compound | melting point | Ki [1]
CCN(c1nc(C)cc(C)n1)c1ccc(OC)cc1OC [compound 7] | 120 to 121 °C | < 500 nM
CCc1ccc(N(c2nc(C)cc(C)n2)C(C)C)c(SC)c1 [compound 181, N-(4-ethyl-2-methylthiophenyl)-N-(1-methylethyl)4,6-dimethyl-2-pyrimidinamine] | 85 to 87 °C | < 500 nM
CCN(c1nc(C)cc(C(O)(c2ccccc2)c2ccccc2)n1)c1ccc(C(C)C)cc1Br [compound 293] | 56 to 58 °C | < 500 nM
C=CCN(c1nc(C)cc(C)n1)c1c(Br)cc(OC)cc1OC [compound 205] | 88 to 90 °C | < 500 nM
CCN(c1nc(C)cc(C)n1)c1ccccc1Br [compound 5] | 94 to 95 °C | 501 to 2000 nM
CCN(c1nc(C)cc(C(O)(c2ccc(OC)cc2)c2ccc(OC)cc2)n1)c1ccc(C(C)C)cc1Br [compound 289] | 63 to 65 °C | < 500 nM
CCOc1cc(Br)c(N(CC)c2nc(C)cc(C)n2)c(Br)c1 [compound 224, N-(2,6-Dibromo-4-(ethoxy)phenyl)-N-ethyl-4,6-dimethyl-2-pyrimidinamine] | 107 to 108 °C | < 500 nM
CCOc1cc(Br)c(Nc2nc(C)cc(C)n2)c(Br)c1 [compound 228] | 165 to 167 °C | 501 to 2000 nM
CCN(c1nc(C)cc(C(=O)NC2CCCCC2)n1)c1ccc(C(C)C)cc1Br [compound 62] | 115 °C | 501 to 2000 nM
CCN(c1nc(C)cc(N2CCN(C=O)CC2)n1)c1ccc(C(C)C)cc1Br [compound 25] | 61 to 63 °C | < 500 nM
CCN(c1nc(C)cc(C(=O)c2ccc(OC)cc2)n1)c1ccc(C(C)C)cc1Br [compound 287] | 104 to 106 °C | 501 to 2000 nM
CCN(c1nc(C)cc(C)n1)c1ccc(Br)cc1SC [compound 180, N-(4-bromo-2-methylthiophenyl)-N-ethyl-4,6-dimethyl-2-pyrimidinamine] | 91 to 93 °C | < 500 nM
CCN(c1nc(C)nc(N2CCOCC2)n1)c1c(Br)cc(OC)cc1OC [compound 237] | 90 to 95 °C | < 500 nM
CCN(c1nc(C)cc(N2CCCC2)n1)c1ccc(C(C)C)cc1Br [compound 192] | 106 to 107 °C | < 500 nM
Cc1cc(C)nc(N(CC2CC2)c2ccc(C(C)C)cc2Br)n1 (as salt: hydrochloride) [compound 33] | 146 to 148 °C | –
CCN(c1nc(C)cc(NN)n1)c1ccc(C(C)C)cc1Br (as salt: hydrochloride) [compound 146] | 117 to 121 °C | –
CCCCc1ccc(N(CC)c2nc(C)cc(C)n2)c(Br)c1 (as salt: hydrochloride) [compound 19] | 124 to 126 °C | –
CCN(c1nccc(C)n1)c1ccc(C(C)C)cc1Br (as salt: hydrochloride) [compound 49, N-(2-Bromo-4-(1-methylethyl)phenyl)-N-ethyl-4-methyl-2-pymidinamine] | 145 to 147 °C | –
CCN(c1nc(C)nc(N2CCOCC2)n1)c1ccc(C(C)C)cc1Br (as salt: hydrochloride) [compound 134, N-[2-bromo-4-(1-methylethyl)phenyl]-N-ethyl-4-methyl-6-(4-morpholinyl)-1,3,5-triazin-2-amine] | 59 to 63 °C | –
Cc1ccc(N(C)c2nc(C)cc(C)n2)c(Br)c1 (as salt: hydrochloride) [compound 1, N-(2-bromo-4-methylphenyl)-N-methyl-4,6-dimethyl-2-pymidinamine] | 120 to 121 °C | –
CCN(c1nc(C)nc(OCc2ccccc2)n1)c1ccc(C(C)C)cc1Br (as salt: hydrochloride) [compound 242, N-[2-bromo-4(1-methylethyl)phenyl]-N-ethyl-4-methyl-6-benzyloxy-1,3,5 triazin-2-amine] | 89 to 90 °C | –
CCN(c1nc(C)cc(OCCN(C)C)n1)c1ccc(C(C)C)cc1Br (as salt: hydrochloride) [compound 161] | 143 to 146 °C | –
CCN(c1nc(C)cc(C)n1)c1ccc(C(C)C)cc1SC (as salt: hydrochloride) [compound 170, N-(2-methylthio-4-(1-methylethyl)phenyl)-N-ethyl-4,6dimethyl-2-pyrimidinamine] | 141 to 142 °C | –
C=CCN(c1nc(C)cc(N2CCOCC2)n1)c1ccc(C(C)C)cc1Br (as salt: hydrochloride) [compound 17] | 208 to 211 °C | –
Cc1cc(C)nc(N2CCCSc3cc(C(C)C)ccc32)n1 (as salt: hydrochloride) [compound 173] | 157 to 159 °C | –
